Tested on: 317291-083-R-J1-PDC complex spheroids, viability
Experiment: Anticancer human tumor 317291-083-R-J1-PDC patient-derived soft tissue sarcoma cell line growth inhibition [GQUAD]
Conditions: for IC50: curve of first compound; for viability, T/C: stronger effect = lower value
In short: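 Multi-cell-type spheroids of tumor cells with HUVEC and mesenchymal stem cells, treated with drug combinations. Concentrations descend in half-log steps from near clinical Cmax, or from 10 microM where Cmax is unknown; viability read-out.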

[1] = second compound 0.0316 µM, first compound 0.0316 µM
[2] = second compound 0.0316 µM, first compound 0.316 µM
[3] = second compound 0.1 µM, first compound 0.0316 µM
[4] = second compound 0.1 µM, first compound 0.316 µM
[5] = second compound 0.316 µM, first compound 0.0316 µM
[6] = second compound 0.316 µM, first compound 0.316 µM
[7] = second compound 1 µM, first compound 0.0316 µM
[8] = second compound 1 µM, first compound 0.316 µM
[9] = second compound 3.16 µM, first compound 0.0316 µM
[10] = second compound 3.16 µM, first compound 0.316 µM
[11] = second compound 10 µM, first compound 0.0316 µM
[12] = second compound 10 µM, first compound 0.316 µM
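Note: spheroids exposed to compounds for one week before readout.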
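Throughout, for viability, T/C: percent viability relative to DMSO vehicle wells taken as 100%.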

`Cn1ncnc1[C@H]1c2n[nH]c(=O)c3cc(F)cc(c23)N[C@@H]1c1ccc(F)cc1` + Cc1[nH]c2ccc(F)cc2c1-c1nc2c3cccnc3c3ncccc3c2[nH]1 was tested, and the IC50 (second compound 0.0316 µM) was over 0.316 µM, the IC50 (second compound 0.1 µM) was over 0.316 µM and the IC50 (second compound 0.316 µM) was over 0.316 µM. The IC50 (second compound 1 µM) was over 0.316 µM, the IC50 (second compound 3.16 µM) was over 0.316 µM and the IC50 (second compound 10 µM) was over 0.316 µM. For the same molecule, the viability, T/C (second compound 0.0316 µM, first compound 0.000999 µM) was 104%, the viability, T/C (second compound 0.0316 µM, first compound 0.00316 µM) was 101% and the viability, T/C (second compound 0.0316 µM, first compound 0.00999 µM) was 120%. For the same molecule, the viability, T/C [1] was 87.8%, the viability, T/C (second compound 0.0316 µM, first compound 0.0999 µM) was 92% and the viability, T/C [2] was 77.2%. The viability, T/C (second compound 0.1 µM, first compound 0.000999 µM) was 119%, the viability, T/C (second compound 0.1 µM, first compound 0.00316 µM) was 99.2% and the viability, T/C (second compound 0.1 µM, first compound 0.00999 µM) was 113%. It also gave a viability, T/C [3] of 112%, a viability, T/C (second compound 0.1 µM, first compound 0.0999 µM) of 91.6% and a viability, T/C [4] of 64.7%. It also gave a viability, T/C (second compound 0.316 µM, first compound 0.000999 µM) of 112%, a viability, T/C (second compound 0.316 µM, first compound 0.00316 µM) of 114% and a viability, T/C (second compound 0.316 µM, first compound 0.00999 µM) of 97.7%. The viability, T/C [5] was 94.3%, the viability, T/C (second compound 0.316 µM, first compound 0.0999 µM) was 108% and the viability, T/C [6] was 91.1%. It also gave a viability, T/C (second compound 1 µM, first compound 0.000999 µM) of 120%, a viability, T/C (second compound 1 µM, first compound 0.00316 µM) of 113% and a viability, T/C (second compound 1 µM, first compound 0.00999 µM) of 89.5%. For the same molecule, the viability, T/C [7] was 89.3%, the viability, T/C (second compound 1 µM, first compound 0.0999 µM) was 91.1% and the viability, T/C [8] was 72.3%. The viability, T/C (second compound 3.16 µM, first compound 0.000999 µM) was 106%, the viability, T/C (second compound 3.16 µM, first compound 0.00316 µM) was 99.7% and the viability, T/C (second compound 3.16 µM, first compound 0.00999 µM) was 96.7%. For the same molecule, the viability, T/C [9] was 73.4%, the viability, T/C (second compound 3.16 µM, first compound 0.0999 µM) was 75.3% and the viability, T/C [10] was 57.1%. The viability, T/C (second compound 10 µM, first compound 0.000999 µM) was 96.1%, the viability, T/C (second compound 10 µM, first compound 0.00316 µM) was 100% and the viability, T/C (second compound 10 µM, first compound 0.00999 µM) was 102%. For the same molecule, the viability, T/C [11] was 75.4%, the viability, T/C (second compound 10 µM, first compound 0.0999 µM) was 86% and the viability, T/C [12] was 68.7%.
Work on `C=CC(=O)N1CCN(c2nc(=O)n(-c3c(C)ccnc3C(C)C)c3nc(-c4c(O)cccc4F)c(F)cc23)C(C)C1` (centres undefined) + Cc1[nH]c2ccc(F)cc2c1-c1nc2c3cccnc3c3ncccc3c2[nH]1 yielded an IC50 (second compound 0.0316 µM) of over 10 µM, an IC50 (second compound 0.1 µM) of over 10 µM and an IC50 (second compound 0.316 µM) of over 10 µM. For the same molecule, the IC50 (second compound 1 µM) was over 10 µM, the IC50 (second compound 3.16 µM) was over 10 µM and the IC50 (second compound 10 µM) was 5.95 µM. For the same molecule, the viability, T/C [1] was 112%, the viability, T/C (second compound 0.0316 µM, first compound 0.1 µM) was 99.2% and the viability, T/C [2] was 113%. For the same molecule, the viability, T/C (second compound 0.0316 µM, first compound 1 µM) was 89.5%, the viability, T/C (second compound 0.0316 µM, first compound 3.16 µM) was 102% and the viability, T/C (second compound 0.0316 µM, first compound 10 µM) was 60.8%. It also gave a viability, T/C [3] of 110%, a viability, T/C (second compound 0.1 µM, first compound 0.1 µM) of 97.4% and a viability, T/C [4] of 104%. The viability, T/C (second compound 0.1 µM, first compound 1 µM) was 116%, the viability, T/C (second compound 0.1 µM, first compound 3.16 µM) was 93.4% and the viability, T/C (second compound 0.1 µM, first compound 10 µM) was 71.8%. The viability, T/C [5] was 101%, the viability, T/C (second compound 0.316 µM, first compound 0.1 µM) was 113% and the viability, T/C [6] was 105%. For the same molecule, the viability, T/C (second compound 0.316 µM, first compound 1 µM) was 99.4%, the viability, T/C (second compound 0.316 µM, first compound 3.16 µM) was 104% and the viability, T/C (second compound 0.316 µM, first compound 10 µM) was 85.3%. For the same molecule, the viability, T/C [7] was 109%, the viability, T/C (second compound 1 µM, first compound 0.1 µM) was 102% and the viability, T/C [8] was 110%. For the same molecule, the viability, T/C (second compound 1 µM, first compound 1 µM) was 104%, the viability, T/C (second compound 1 µM, first compound 3.16 µM) was 88.9% and the viability, T/C (second compound 1 µM, first compound 10 µM) was 73.2%. The viability, T/C [9] was 93.3%, the viability, T/C (second compound 3.16 µM, first compound 0.1 µM) was 91.4% and the viability, T/C [10] was 96%. For the same molecule, the viability, T/C (second compound 3.16 µM, first compound 1 µM) was 93.1%, the viability, T/C (second compound 3.16 µM, first compound 3.16 µM) was 74.7% and the viability, T/C (second compound 3.16 µM, first compound 10 µM) was 51.5%. It also gave a viability, T/C [11] of 58.4%, a viability, T/C (second compound 10 µM, first compound 0.1 µM) of 69.9% and a viability, T/C [12] of 78.5%. It also gave a viability, T/C (second compound 10 µM, first compound 1 µM) of 74.3%, a viability, T/C (second compound 10 µM, first compound 3.16 µM) of 74.9% and a viability, T/C (second compound 10 µM, first compound 10 µM) of 32.7%.
